Results as given in article PMC11617876 (Heliyon, 2024).

What was measured:
[1] = tested on: carrageenan-induced paw edema; test: carrageenan-induced rat paw edema, in vivo anti-inflammatory activity; conditions: diclofenac sodium = 1
albino rats = test: acute toxicity studies; format: in vivo, rat; conditions: oral

| SMILES | Effectiveness [1] | toxicity in laboratory tests (albino rats) |
| --- | --- | --- |
| O=C(O)Cc1ccccc1Nc1c(Cl)cccc1Cl [Diclofenac sodium, reference compound] | 1 |  |
| Clc1ccc(-c2nocc2-c2ccccc2)cc1 [5b, 3-(4-Chloro-phenyl)-4-phenyl-isoxazole] | 0.83 | low toxicity |
| O=[N+]([O-])c1ccc(-c2nocc2-c2ccccc2)cc1 [5f, 3-(4-Nitro-phenyl)-4-phenyl-isoxazole] | 0.66 |  |
| Fc1ccc(-c2nocc2-c2ccccc2)cc1 [5j, 3-(4-Fluoro-phenyl)-4-phenyl-isoxazole] | 0.80 |  |
| Brc1ccc(-c2nocc2-c2ccccc2)cc1 [5h, 3-(4-Bromo-phenyl)-4-phenyl-isoxazole] | 0.02 |  |
| Clc1cccc(-c2nocc2-c2ccccc2)c1 [5i, 3-(3-Chloro-phenyl)-4-phenyl-isoxazole] | 0.55 |  |
| COc1ccc(-c2nocc2-c2ccccc2)cc1 [5m, 3-(4-Methoxy-phenyl)-4-phenyl-isoxazole] | 0.63 |  |
| Brc1cccc(-c2nocc2-c2ccccc2)c1 [5g, 3-(3-Bromo-phenyl)-4-phenyl-isoxazole] | 0.22 |  |
| O=[N+]([O-])c1cccc(-c2nocc2-c2ccccc2)c1 [5e, 3-(3-Nitro-phenyl)-4-phenyl-isoxazole] | 0.16 |  |
| Oc1ccc(-c2nocc2-c2ccccc2)cc1 [5c, 4-(4-Phenyl-isoxazol-3-yl)-phenol] | 0.81 | low toxicity |
| Oc1cccc(-c2nocc2-c2ccccc2)c1 [5d, 3-(4-Phenyl-isoxazol-3-yl)-phenol] | 0.71 | low toxicity |
| COc1cccc(-c2nocc2-c2ccccc2)c1 [5l, 3-(3-Methoxy-phenyl)-4-phenyl-isoxazole] | 0.57 |  |
| COc1ccccc1-c1nocc1-c1ccccc1 [5k, 3-(2-Methoxy-phenyl)-4-phenyl-isoxazole] | 0.09 |  |
